Assay results: ChEMBL document CHEMBL5550090, “Synthesis and biological evaluation of 1H-pyrrolo[3,2-g]isoquinolines” (Bioorg Med Chem, 2024)

Key:
[1] = target: T1, Serine/threonine-protein kinase pim-1 (Homo sapiens, UniProt P11309); assay: Inhibition of human recombinant PIM-1 expressed in bacteria assessed as enzyme residual activity using histone H1 as substrate at 10 uM incubated for 30 mins in presence of ATP by ADP-Glo kinase assay
Target sequence in this assay (P11309 whole entry, looked up): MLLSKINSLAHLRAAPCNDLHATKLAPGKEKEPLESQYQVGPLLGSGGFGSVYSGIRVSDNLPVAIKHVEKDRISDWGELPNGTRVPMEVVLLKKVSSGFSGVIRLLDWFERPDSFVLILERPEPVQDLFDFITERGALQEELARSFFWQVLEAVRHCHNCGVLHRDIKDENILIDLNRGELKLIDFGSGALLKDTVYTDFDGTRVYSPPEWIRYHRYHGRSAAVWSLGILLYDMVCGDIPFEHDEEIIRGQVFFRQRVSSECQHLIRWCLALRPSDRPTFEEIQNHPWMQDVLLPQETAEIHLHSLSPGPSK

[2] = target: Glycogen synthase kinase-3 beta (Homo sapiens) (UniProt P49841); assay: Inhibition of human recombinant GSK-3 beta expressed in baculovirus-infected Sf9 cells assessed as enzyme residual activity using YRRAAVPPSPSLSRHSSPHQSpEDEEE as substrate at 1 uM incubated for 30 mins in presence of ATP by ADP-Glo kinase assay
Chain of Glycogen synthase kinase-3 beta (Homo sapiens) (P49841 whole entry, looked up): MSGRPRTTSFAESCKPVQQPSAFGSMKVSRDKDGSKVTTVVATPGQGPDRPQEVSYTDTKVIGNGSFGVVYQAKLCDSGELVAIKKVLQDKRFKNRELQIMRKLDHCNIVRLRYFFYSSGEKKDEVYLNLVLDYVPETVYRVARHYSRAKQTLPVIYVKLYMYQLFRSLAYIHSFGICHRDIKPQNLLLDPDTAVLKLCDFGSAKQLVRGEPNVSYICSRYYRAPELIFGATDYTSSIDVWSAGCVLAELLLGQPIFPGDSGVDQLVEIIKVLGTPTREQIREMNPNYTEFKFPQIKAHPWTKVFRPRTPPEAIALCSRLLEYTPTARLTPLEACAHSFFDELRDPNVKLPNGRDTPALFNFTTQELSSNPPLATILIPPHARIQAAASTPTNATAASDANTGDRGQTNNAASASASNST

[3] = target: T1, Serine/threonine-protein kinase pim-1; assay: Inhibition of human recombinant PIM-1 expressed in bacteria using histone H1 as substrate incubated for 30 mins in presence of ATP by ADP-Glo kinase assay
Target sequence in this assay (P11309 whole entry): as the sequence (P11309 whole entry, looked up) above

[4] = target: T2, CDK9/cyclin T1 (Homo sapiens) (UniProt O60563+P50750); assay: Inhibition of human recombinant CDK9/cyclin T expressed in baculovirus-infected Sf9 cells assessed as enzyme residual activity using YSPTSPSYSPTSPSYSPTSPSKKKK as substrate at 10 uM incubated for 30 mins in presence of ATP by ADP-Glo kinase assay
[5] = target: Casein kinase I isoform epsilon (Homo sapiens) (UniProt P49674); assay: Inhibition of human recombinant CK1 epsilon expressed in baculovirus-infected Sf9 cells assessed as enzyme residual activity using RRKHAAIGSpAYSITA as substrate at 1 uM incubated for 30 mins in presence of ATP by ADP-Glo kinase assay
Chain of Casein kinase I isoform epsilon (Homo sapiens) (P49674 whole entry, looked up, the tested form may be a part, canonical isoform): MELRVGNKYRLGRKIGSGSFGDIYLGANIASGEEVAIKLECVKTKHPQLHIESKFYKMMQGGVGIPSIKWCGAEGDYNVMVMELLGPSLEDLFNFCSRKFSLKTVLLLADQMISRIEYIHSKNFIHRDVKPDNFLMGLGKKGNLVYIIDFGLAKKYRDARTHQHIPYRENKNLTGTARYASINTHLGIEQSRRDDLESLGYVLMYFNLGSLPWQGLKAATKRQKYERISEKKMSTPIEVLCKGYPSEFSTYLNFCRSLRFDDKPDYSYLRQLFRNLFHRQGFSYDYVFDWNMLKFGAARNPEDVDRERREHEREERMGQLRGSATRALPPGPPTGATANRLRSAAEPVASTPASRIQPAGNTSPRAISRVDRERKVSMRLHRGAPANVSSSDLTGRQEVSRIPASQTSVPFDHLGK

[6] = target: Casein kinase I isoform epsilon (Homo sapiens) (UniProt P49674); assay: Inhibition of human recombinant CK1 epsilon expressed in baculovirus-infected Sf9 cells assessed as enzyme residual activity using RRKHAAIGSpAYSITA as substrate at 10 uM incubated for 30 mins in presence of ATP by ADP-Glo kinase assay
[7] = Selectivity index, ratio of IC50 for recombinant mouse CLK1 expressed in bacteria to IC50 for recombinant human Haspin kinase domain (470 to 798 residues) expressed in bacteria
[8] = target: Dual specificity protein kinase CLK1 (Mus musculus, UniProt P22518); assay: Inhibition of recombinant mouse CLK1 expressed in bacteria using GRSRSRSRSRSR as substrate incubated for 30 mins in presence of ATP by ADP-Glo kinase assay
Chain of Dual specificity protein kinase CLK1 (P22518 whole entry, the tested form may be a part): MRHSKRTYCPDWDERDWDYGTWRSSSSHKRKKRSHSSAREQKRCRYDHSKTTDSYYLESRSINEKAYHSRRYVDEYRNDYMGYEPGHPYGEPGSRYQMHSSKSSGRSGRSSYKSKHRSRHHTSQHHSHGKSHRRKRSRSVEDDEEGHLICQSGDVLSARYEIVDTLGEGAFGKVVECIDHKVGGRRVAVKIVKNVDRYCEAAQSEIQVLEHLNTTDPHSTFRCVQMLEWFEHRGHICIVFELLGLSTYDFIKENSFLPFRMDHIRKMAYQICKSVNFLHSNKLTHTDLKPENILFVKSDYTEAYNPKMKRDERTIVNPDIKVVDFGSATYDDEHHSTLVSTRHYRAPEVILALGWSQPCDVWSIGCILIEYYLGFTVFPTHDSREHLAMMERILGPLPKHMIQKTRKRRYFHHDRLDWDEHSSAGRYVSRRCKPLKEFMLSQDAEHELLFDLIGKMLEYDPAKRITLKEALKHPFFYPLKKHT

[9] = target: Dual specificity tyrosine-phosphorylation-regulated kinase 1A (Rattus norvegicus) (UniProt Q63470); assay: Inhibition of recombinant rat DYRK1A kinase domain (1 to 499 residues) expressed in bacteria assessed as enzyme residual activity using KKISGRLSPIMTEQ as substrate at 10 uM incubated for 30 mins in presence of ATP by ADP-Glo kinase assay
[10] = target: Dual specificity tyrosine-phosphorylation-regulated kinase 1A (Rattus norvegicus) (UniProt Q63470); assay: Inhibition of recombinant rat DYRK1A kinase domain (1 to 499 residues) expressed in bacteria assessed as enzyme residual activity using KKISGRLSPIMTEQ as substrate at 1 uM incubated for 30 mins in presence of ATP by ADP-Glo kinase assay
[11] = target: Glycogen synthase kinase-3 beta (Homo sapiens) (UniProt P49841); assay: Inhibition of human recombinant GSK-3 beta expressed in baculovirus-infected Sf9 cells assessed as enzyme residual activity using YRRAAVPPSPSLSRHSSPHQSpEDEEE as substrate at 10 uM incubated for 30 mins in presence of ATP by ADP-Glo kinase assay
[12] = target: T3, Cyclin-dependent kinase 5/CDK5 activator 1 (Homo sapiens) (UniProt Q00535+Q15078); assay: Inhibition of human recombinant CDK5/p25 expressed in bacteria assessed as enzyme residual activity using histone H1 as substrate at 1 uM incubated for 30 mins in presence of ATP by ADP-Glo kinase assay
T3 sequence (Q00535 whole entry): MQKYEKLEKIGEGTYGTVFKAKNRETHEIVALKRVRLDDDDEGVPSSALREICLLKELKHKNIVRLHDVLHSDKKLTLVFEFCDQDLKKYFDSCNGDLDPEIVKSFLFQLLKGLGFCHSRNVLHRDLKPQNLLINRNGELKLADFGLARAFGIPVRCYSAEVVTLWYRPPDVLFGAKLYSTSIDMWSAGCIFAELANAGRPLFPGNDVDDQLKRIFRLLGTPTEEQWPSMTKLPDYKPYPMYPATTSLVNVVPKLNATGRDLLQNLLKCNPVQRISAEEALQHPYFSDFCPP
T3 sequence (Q15078 99-307 partner limits assumed): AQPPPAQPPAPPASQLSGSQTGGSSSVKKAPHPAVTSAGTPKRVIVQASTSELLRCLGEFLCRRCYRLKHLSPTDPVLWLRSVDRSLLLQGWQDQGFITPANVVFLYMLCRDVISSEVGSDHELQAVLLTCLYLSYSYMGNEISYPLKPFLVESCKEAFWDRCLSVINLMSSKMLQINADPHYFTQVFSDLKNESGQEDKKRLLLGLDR

[13] = target: T3, Cyclin-dependent kinase 5/CDK5 activator 1 (Homo sapiens); assay: Inhibition of human recombinant CDK5/p25 expressed in bacteria assessed as enzyme residual activity using histone H1 as substrate at 10 uM incubated for 30 mins in presence of ATP by ADP-Glo kinase assay
[14] = target: T1, Serine/threonine-protein kinase pim-1; assay: Inhibition of human recombinant PIM-1 expressed in bacteria assessed as enzyme residual activity using histone H1 as substrate at 1 uM incubated for 30 mins in presence of ATP by ADP-Glo kinase assay
Target sequence in this assay (P11309 whole entry, looked up): as the sequence (P11309 whole entry, looked up) above

[15] = target: Dual specificity tyrosine-phosphorylation-regulated kinase 1A (Rattus norvegicus, UniProt Q63470); assay: Inhibition of recombinant rat DYRK1A kinase domain (1 to 499 residues) expressed in bacteria using KKISGRLSPIMTEQ as substrate incubated for 30 mins in presence of ATP by ADP-Glo kinase assay
[16] = target: T4, Serine/threonine-protein kinase haspin (Homo sapiens, UniProt Q8TF76); assay: Inhibition of recombinant human Haspin kinase domain (470 to 798 residues) expressed in bacteria using histone H3 (1 to 21) peptide as substrate incubated for 30 mins in presence of ATP by ADP-Glo kinase assay
T4 sequence (Q8TF76 whole entry): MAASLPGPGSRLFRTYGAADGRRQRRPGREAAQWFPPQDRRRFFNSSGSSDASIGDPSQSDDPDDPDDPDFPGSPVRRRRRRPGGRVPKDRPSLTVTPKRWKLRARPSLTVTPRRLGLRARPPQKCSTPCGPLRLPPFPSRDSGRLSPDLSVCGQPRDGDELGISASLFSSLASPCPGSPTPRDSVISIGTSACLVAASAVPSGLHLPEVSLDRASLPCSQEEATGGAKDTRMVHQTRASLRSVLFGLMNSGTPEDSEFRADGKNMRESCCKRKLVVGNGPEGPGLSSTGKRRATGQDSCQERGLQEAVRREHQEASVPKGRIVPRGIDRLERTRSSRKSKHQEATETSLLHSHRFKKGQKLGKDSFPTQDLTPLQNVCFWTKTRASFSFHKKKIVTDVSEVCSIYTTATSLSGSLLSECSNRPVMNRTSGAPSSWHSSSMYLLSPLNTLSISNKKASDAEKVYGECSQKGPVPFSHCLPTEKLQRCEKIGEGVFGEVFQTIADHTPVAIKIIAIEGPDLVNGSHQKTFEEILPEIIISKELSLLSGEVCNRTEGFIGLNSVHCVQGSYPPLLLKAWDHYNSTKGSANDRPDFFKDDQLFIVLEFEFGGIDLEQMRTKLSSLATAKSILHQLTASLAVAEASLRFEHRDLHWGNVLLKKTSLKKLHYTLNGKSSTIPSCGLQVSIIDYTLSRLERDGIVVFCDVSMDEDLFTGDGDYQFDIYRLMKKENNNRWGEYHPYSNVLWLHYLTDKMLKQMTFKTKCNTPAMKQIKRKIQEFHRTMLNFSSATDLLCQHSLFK

[17] = target: Dual specificity protein kinase CLK1 (Mus musculus) (UniProt P22518); assay: Inhibition of recombinant mouse CLK1 expressed in bacteria assessed as enzyme residual activity using GRSRSRSRSRSR as substrate at 1 uM incubated for 30 mins in presence of ATP by ADP-Glo kinase assay
Chain of Dual specificity protein kinase CLK1 (Mus musculus) (P22518 whole entry, looked up): as the sequence (P22518 whole entry, the tested form may be a part) above

[18] = target: Dual specificity protein kinase CLK1 (Mus musculus) (UniProt P22518); assay: Inhibition of recombinant mouse CLK1 expressed in bacteria assessed as enzyme residual activity using GRSRSRSRSRSR as substrate at 10 uM incubated for 30 mins in presence of ATP by ADP-Glo kinase assay
[19] = target: T2, CDK9/cyclin T1 (Homo sapiens); assay: Inhibition of human recombinant CDK9/cyclin T expressed in baculovirus-infected Sf9 cells assessed as enzyme residual activity using YSPTSPSYSPTSPSYSPTSPSKKKK as substrate at 1 uM incubated for 30 mins in presence of ATP by ADP-Glo kinase assay
[20] = target: CDK9/cyclin T1 (Homo sapiens, UniProt P50750); assay: Inhibition of human recombinant CDK9/cyclin T expressed in baculovirus-infected Sf9 cells using YSPTSPSYSPTSPSYSPTSPSKKKK as substrate incubated for 30 mins in presence of ATP by ADP-Glo kinase assay
Chain of CDK9/cyclin T1 (O60563 whole entry, the tested form may be a part): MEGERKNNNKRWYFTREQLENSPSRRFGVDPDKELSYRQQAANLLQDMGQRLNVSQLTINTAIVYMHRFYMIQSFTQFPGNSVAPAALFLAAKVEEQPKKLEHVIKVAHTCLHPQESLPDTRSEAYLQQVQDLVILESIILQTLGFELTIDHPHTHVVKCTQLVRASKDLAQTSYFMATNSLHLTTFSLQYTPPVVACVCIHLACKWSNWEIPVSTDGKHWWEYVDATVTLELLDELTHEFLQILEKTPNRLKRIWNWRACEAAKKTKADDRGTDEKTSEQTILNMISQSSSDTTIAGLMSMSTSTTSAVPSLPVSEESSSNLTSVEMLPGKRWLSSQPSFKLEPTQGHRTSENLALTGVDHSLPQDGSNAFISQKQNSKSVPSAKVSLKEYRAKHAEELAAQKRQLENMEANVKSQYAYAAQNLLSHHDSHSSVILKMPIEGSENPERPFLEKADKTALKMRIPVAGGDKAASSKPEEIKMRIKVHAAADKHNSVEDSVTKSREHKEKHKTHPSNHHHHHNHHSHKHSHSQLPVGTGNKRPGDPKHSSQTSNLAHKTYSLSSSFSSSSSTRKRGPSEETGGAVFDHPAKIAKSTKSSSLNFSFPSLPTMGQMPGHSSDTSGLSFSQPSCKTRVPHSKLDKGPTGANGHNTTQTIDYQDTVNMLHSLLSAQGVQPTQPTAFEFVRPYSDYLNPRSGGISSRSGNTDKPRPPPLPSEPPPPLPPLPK
Chain of CDK9/cyclin T1 (P50750 whole entry, the tested form may be a part): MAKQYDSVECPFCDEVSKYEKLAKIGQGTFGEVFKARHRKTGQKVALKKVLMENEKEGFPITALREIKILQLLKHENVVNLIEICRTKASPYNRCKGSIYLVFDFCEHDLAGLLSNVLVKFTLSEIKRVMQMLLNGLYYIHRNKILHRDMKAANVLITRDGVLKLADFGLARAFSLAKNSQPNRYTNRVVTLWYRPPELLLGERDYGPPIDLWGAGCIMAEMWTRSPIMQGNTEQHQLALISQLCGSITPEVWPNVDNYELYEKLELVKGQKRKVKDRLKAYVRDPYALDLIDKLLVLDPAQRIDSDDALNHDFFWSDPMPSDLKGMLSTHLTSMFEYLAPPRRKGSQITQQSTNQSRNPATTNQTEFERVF

[21] = species: Homo sapiens; assay: Selectivity index, ratio of IC50 for human recombinant CDK9/cyclin T expressed in baculovirus-infected Sf9 cells to IC50 for recombinant human Haspin kinase domain (470 to 798 residues) expressed in bacteria
[22] = system: U2OS; assay: cells; details: Homo sapiens, 48 h
Description: Antiproliferative activity against human U2OS cells assessed as reduction in cell viability incubated for 48 hrs by MTS assay

[23] = system: SH-SY5Y; assay: cells; details: Homo sapiens, 48 h
Description: Antiproliferative activity against human SH-SY5Y cells assessed as reduction in cell viability incubated for 48 hrs by MTS assay

[24] = system: HBL-100; assay: cells; details: Homo sapiens, HBL-100, 48 h
Description: Antiproliferative activity against human HBL-100 cells assessed as reduction in cell viability incubated for 48 hrs by MTS assay

[25] = system: TERT-RPE1; assay: cells; details: Homo sapiens, RPE-1, 48 h
Description: Cytotoxicity against human TERT-RPE1 cells assessed as reduction in cell viability incubated for 48 hrs by MTS assay

[26] = system: HCT-116; assay: cells; details: Homo sapiens, HCT-116, 48 h
Description: Antiproliferative activity against human HCT-116 cells assessed as reduction in cell viability incubated for 48 hrs by MTS assay

SMILES: Nc1nccc(-c2c[nH]c3cc4cnccc4cc23)n1
- Activity [1]: 4%
- Activity [2]: 76%
- IC50 [3]: 225 nM
- Activity [4]: 16%
- Activity [5]: 46%
- Activity [6]: 10%
- Ratio IC50 [7]: 1.7
- IC50 [8]: 205 nM
- Activity [9]: 0%
- Activity [10]: 25%
- Activity [11]: 35%
- Activity [12]: 79%
- Activity [13]: 21%
- Activity [14]: 20%
- IC50 [15]: 560 nM
- IC50 [16]: 122 nM
- Activity [17]: 16%
- Activity [18]: 5%
- Activity [19]: 56%

SMILES: ON=Cc1c[nH]c2cc3cnccc3cc12
- Activity [1]: 11%
- Activity [2]: 80%
- Activity [4]: 2%
- Activity [5]: 89%
- Activity [6]: 46%
- Ratio IC50 [7]: 1.1
- IC50 [8]: 139 nM
- Activity [9]: 1%
- Activity [10]: 9%
- Activity [11]: 27%
- Activity [12]: 51%
- Activity [13]: 32%
- Activity [14]: 43%
- IC50 [20]: 222 nM
- IC50 [15]: 290 nM
- IC50 [16]: 130 nM
- Activity [17]: 15%
- Activity [19]: 13%

SMILES: CC(=O)c1c[nH]c2cc3cnccc3cc12
- Activity [1]: 27%
- Activity [2]: 69%
- Activity [4]: 20%
- Activity [5]: 98%
- Activity [6]: 62%
- Ratio IC50 [7]: 1.7
- IC50 [8]: 265 nM
- Activity [9]: 0%
- Activity [10]: 25%
- Activity [11]: 27%
- Activity [12]: 31%
- Activity [13]: 13%
- Activity [14]: 80%
- IC50 [15]: 860 nM
- IC50 [16]: 157 nM
- Activity [17]: 21%
- Activity [18]: 10%
- Activity [19]: 34%

SMILES: N#Cc1c[nH]c2cc3cnccc3cc12
- Activity [1]: 95%
- Activity [2]: 59%
- Activity [4]: 6%
- Activity [5]: 92%
- Activity [6]: 47%
- Ratio IC50 [21]: 2.4
- IC50 [8]: 360 nM
- Activity [9]: 5%
- Activity [10]: 38%
- Activity [11]: 26%
- Activity [12]: 69%
- Activity [13]: 34%
- Activity [14]: 100%
- IC50 [20]: 178 nM
- IC50 [15]: 182 nM
- IC50 [16]: 75 nM
- Activity [17]: 19%
- Activity [18]: 0%
- Activity [19]: 34%

SMILES: Brc1c[nH]c2cc3cnccc3cc12
- Activity [1]: 24%
- Activity [2]: 89%
- IC50 [3]: 804 nM
- Activity [4]: 27%
- Activity [5]: 100%
- EC50 [22]: > 50000 nM
- Activity [6]: 77%
- Activity [9]: 11%
- EC50 [23]: > 50000 nM
- Activity [10]: 36%
- Activity [11]: 62%
- EC50 [24]: > 50000 nM
- EC50 [25]: > 50000 nM
- Activity [12]: 100%
- Activity [13]: 48%
- EC50 [26]: > 50000 nM
- Activity [14]: 48%
- IC50 [20]: 999 nM
- IC50 [15]: 916 nM
- IC50 [16]: 150 nM
- Activity [17]: 72%
- Activity [18]: 32%
- Activity [19]: 39%

SMILES: O=Cc1c[nH]c2cc3cnccc3cc12
- Activity [1]: 33%
- Activity [2]: 55%
- Activity [4]: 7%
- Activity [5]: 80%
- Activity [6]: 34%
- Ratio IC50 [21]: 0.96
- IC50 [8]: 182 nM
- Activity [9]: 7%
- Activity [10]: 21%
- Activity [11]: 23%
- Activity [12]: 84%
- Activity [13]: 57%
- Activity [14]: 64%
- IC50 [20]: 151 nM
- IC50 [15]: 495 nM
- IC50 [16]: 158 nM
- Activity [17]: 53%
- Activity [18]: 26%
- Activity [19]: 7%

SMILES: Ic1c[nH]c2cc3cnccc3cc12
- Activity [1]: 23%
- Activity [2]: 77%
- IC50 [3]: 675 nM
- Activity [4]: 35%
- Activity [5]: 69%
- EC50 [22]: > 50000 nM
- Activity [6]: 27%
- Activity [9]: 16%
- EC50 [23]: > 50000 nM
- Activity [10]: 50%
- Activity [11]: 74%
- EC50 [24]: > 50000 nM
- EC50 [25]: > 50000 nM
- Activity [13]: 100%
- EC50 [26]: > 50000 nM
- Activity [14]: 50%
- IC50 [15]: 564 nM
- IC50 [16]: 114 nM
- Activity [17]: 69%
- Activity [18]: 27%
- Activity [19]: 62%
